Legend:
[1] = target: T1, HIV-1 protease V82F/I84V (Human immunodeficiency virus type 1 group M subtype B, UniProt P04585, I572V/V570F); experiment: continuous fluorogenic HIV protease assay; type: biochemical; conditions: V82F/I84V (Table 7)
T1 construct: the proteases of wild-type HIV-1 (WT) and various mutant enzymes
Experimental: (§1) This example describes the protocol for the sensitive continuous fluorogenic assay for HIV protease of the present invention and its application. […] The inhibition constant for wild-type HIV-1, Kimnt/Kiwt ratio, and vitality were measured.
(§2) The reaction was initiated by the addition of 5 μl of substrate stock solution in water. […] The initial rate of hydrolysis was calculated by second degree polynomial fit using SLM AB2 2.0 operating software.
(§3) For inhibition studies, inhibitors were prepared as stock solutions at different concentrations in dimethylsulfoxide. […] The reaction was initiated by the addition of 5 μl of substrate stock solution in water. For data analysis, the mathematical model for tight-binding inhibitors was used.

[2] = target: HIV-1 protease V82F/I84V; experiment: continuous fluorogenic HIV protease assay; type: biochemical
Experimental: as §1, §2, §3

[3] = target: T2, wild-type HIV-1 (WT) protease (Human immunodeficiency virus type 1 group M subtype B, UniProt P04585); experiment: continuous fluorogenic HIV protease assay; type: biochemical; conditions: WT (Table 7)
T2 construct: the proteases of wild-type HIV-1 (WT)
Experimental: as §1, §2, §3

[4] = target: T3, HIV-1 protease G48V/V82A (Human immunodeficiency virus type 1 group M subtype B, UniProt P04585, G536V/V570A); experiment: continuous fluorogenic HIV protease assay; type: biochemical
T3 construct: proteases containing the deleterious drug resistance associated mutations V82F/I84V and G48V/V82A
Experimental: This example describes the protocol for the sensitive continuous fluorogenic assay for HIV protease of the present invention and its application. […] 21702-1201, upon written request. The inhibition constant for wild-type HIV-1, Kimnt/Kiwt ratio, and vitality were measured. (See Gulnik et al., Biochemistry, 34, 9282-9287 (1995). Protease activity was measured using the fluorgenic substrate Lys-Ala-Arg-Val-Tyr-Phe(NO2)-Glu-Ala-Nle-NH2 (Bachem Bioscience, Inc.). (See Peranteau et al., D.H. (1995) Anal. Biochem.).
The reaction was initiated by the addition of 5 μl of substrate stock solution in water. Increase in fluorescence intensity at the emission maximum of 306 nm (excitation wavelength was 277 nm) was monitored as a function of time using Aminco Bowman-2 luminescence spectrometer (SLM Instruments, Inc.). The initial rate of hydrolysis was calculated by second degree polynomial fit using SLM AB2 2.0 operating software.
as §3, with “used. (See Williams and Morrison (1979), In: Methods of Enzymol. 63, (ed. D. L. Purich), 437-467, Academic Press, NY, London). […]” for “used.”
This example describes the inhibitory activity of compounds 35 (FIG. 5A), 36 (FIG. 5B), 37 (FIG. 5C) and 38 (FIG. 5D). In accordance with the technique disclosed in Example 13 above, the inhibitory activity of these compounds was tested against proteases of the wild-type HIV-1. Compound 36, 37 and 38 were also tested against proteases containing the deleterious drug resistance associated mutations V82F/I84V and G48V/V82A. Fitness was determined in accordance with Example 13.

[5] = tested on: HIV-1LAI; experiment: PHA-PBMC assay, p24 Gag protein production; type: cell-based; conditions: HIV-1LAI; PBMC/p24, day 7 (Table 8)
[6] = tested on: HIV-1BAL; experiment: PHA-PBMC assay, p24 Gag protein production; type: cell-based; conditions: HIV-1Ba-L; PBMC/p24, day 7 (Table 8)
[7] = tested on: HIV-1LAI; experiment: MT-2 cells, MTT assay; type: cell-based; conditions: HIV-1LAI; MT-2/MTT, day 7
Experimental: All drug sensitivities were performed in triplicate. […] The IC50's were determined using the MTT assay on day 7 of culture. All sensitivities were determined in […].

| SMILES | Ki [1] | KI-wt/KI-mut ([2]; V82F/I84V (Table 7)) | Fitness ([2]; V82F/I84V relative to WT (Table 7)) | Ki [3] | KI-wt/KI-mut ([4]; G48V/V82A) | Ki ([4]; G48V/V82A) | Fitness ([4]; G48V/V82A relative to WT) | IC50 [5] | IC50 [6] | IC50 [7] | KI-wt/KI-mut [3] |
| --- | --- | --- | --- | --- | --- | --- | --- | --- | --- | --- | --- |
| CC(C)CN(C[C@@H](O)[C@H](Cc1ccccc1)NC(=O)O[C@H]1CO[C@H]2OCC[C@H]21)S(=O)(=O)c1cccc(O)c1 [Compound 36] | 0.0244 nM | >4.9 | >0.8 | < 0.005 nM | >3.0 | 0.0153 nM | >0.8 | 34 nM | 38 nM | 17 nM | – |
| CC(C)CN(C[C@@H](O)[C@H](Cc1ccccc1)NC(=O)O[C@H]1CO[C@H]2OCC[C@H]21)S(=O)(=O)c1ccc(CN)cc1 [Compound 35] | – | – | – | 0.081 nM | – | – | – | 20 nM | 13 nM | 28 nM | 1 |

Source: patent US9889115B2, “Fitness assay and associated methods” (priority 1998, dated 2018)
